Assay [1] concerns the target T1, full-length human His-tagged BTK (Homo sapiens, UniProt Q06187).
T1 construct: 6 nM of full-length human His-tagged BTK (Life Technologies cat # PV3587); His; purchased Life Technologies PV3587
Kind of assay: BTK HTRF assay (Cisbio KinEASE-TK). It is filed as biochemical. Particulars: 6 nM BTK, 30 uM ATP, 15 min preincubation. Here is the method: Description of Biological Properties BTK Assay
An HTRF assay (Cisbio KinEASE-TK cat #62TK0PEC) was performed to quantitate the ability of test compounds to inhibit BTK mediated phosphorylation of substrate. Assays were assembled in 384 well plates where 6 nM of full-length human His-tagged BTK (Life Technologies cat # PV3587) and test compound at varying concentrations were preincubated for 15 minutes at 28° C. Then, 1 uM of TK substrate-biotin and 30 uM ATP were added and incubated for an additional 30 minutes at 28° C. Phospohrylation was detected by adding 62.5 nM Streptavidin-XL665 and TK-Antibody Cryptate diluted 1:100 in HTRF detection buffer (Cisbio cat #62SDBRDF) and incubated for 60 minutes at RT. The plate was read on an Envision plate reader and the fluorescence is measured at 620 nm (cryptate) and 665 nm (XL665). A ratio is calculated (665/620) and converted to POC relative to control and blank wells.
50 mM HEPES (Invitrogen #15630), 0.01% Brij-35 (sigma #B4184), 10 mM MgCl2 (Sigma M1028), 1 mM EGTA (Ambion AM9262) and 100 uM sodium orthovanedate (Sigma S6508), 1 mM DTT (Sigma D5545) and 10 nM supplement enzyme buffer (Cisbio cat#61SEBALB).
A general note: In TR-FRET formats the signal depends on donor and acceptor labels being close together.

For assay [2], the system named is EGFR phosphorylation in A431 cells. Kind of assay: Inhibition of EGFR autophosphorylation in A431 human epithelial cells stimulated with EGF. It is filed as cell-based. As to conditions: A-431, 16 hours compound, EGF 60 ng/mL 10 minutes, read-out: A431 p-EGFR IC50. The source says: (§1) The compounds described herein show a range of selectivities against EGFR as measured in cellular assays (BTK activity measured by IL-6 production in primary CD19^+ cells; EGFR activity measured by EGFR phosphorylation in A431 cells).
Inhibition of EGFR Autophosphorylation in A431 Human Epithelial Cells Stimulated with Epithelial Growth Factor
A431 cells (ATCC # CRL-1555 FZ) are thawed and plated in DMEM containing 10% FBS in a 384-well tissue culture treated plate at 15,000 cells/well. After incubating for 24 hours at 37° C., 5% CO2, the cells are treated with test compound (1% DMSO final concentration) and incubated for 16 hours at 37° C., 5% CO2. EGF (Millipore, 01-107) is added at a final concentration of 60 ng/mL and incubated for 10 minutes. The medium is removed, the cells are lysed, and phospho EGFR is measured (Meso Scale Diagnostics, N31CB-1).

The test system of assay [3] is BTK activity measured by IL-6 production in primary CD19+ cells. Nature of the assay: Inhibition of IL-6 production in B cells co-stimulated with ODN 2006 and anti-hIgD. As to conditions: B-cell, anti-human IgD + ODN 2006, 18-24 hours. It is filed as cell-based. As for the experimental part: as §1
Inhibition of IL-6 Production in B Cells Co-Stimulated with ODN 2006 and Anti-hIgD
Primary CD19+ B cells (AllCells # PB010F) are thawed and plated in RPMI containing 10% HI FBS in a 384-well tissue cultured plate at 20,000 cells/well. The cells are treated with test compound (0.5% DMSO final concentration) and incubated for 1 hour at 37° C., 5% CO2. Cells are then stimulated with 5 ug/mL Goat F(ab′)2 anti-human IgD (SouthernBiotech #2032) and 2 uM ODN 2006 (InvivoGen # tlrl-2006) and incubated for 18-24 hours at 37° C., 5% CO2. IL-6 in the supernatant is measured using Meso Scale Discovery kit # K211AKB-6.

T1 sequence (Q06187 whole entry): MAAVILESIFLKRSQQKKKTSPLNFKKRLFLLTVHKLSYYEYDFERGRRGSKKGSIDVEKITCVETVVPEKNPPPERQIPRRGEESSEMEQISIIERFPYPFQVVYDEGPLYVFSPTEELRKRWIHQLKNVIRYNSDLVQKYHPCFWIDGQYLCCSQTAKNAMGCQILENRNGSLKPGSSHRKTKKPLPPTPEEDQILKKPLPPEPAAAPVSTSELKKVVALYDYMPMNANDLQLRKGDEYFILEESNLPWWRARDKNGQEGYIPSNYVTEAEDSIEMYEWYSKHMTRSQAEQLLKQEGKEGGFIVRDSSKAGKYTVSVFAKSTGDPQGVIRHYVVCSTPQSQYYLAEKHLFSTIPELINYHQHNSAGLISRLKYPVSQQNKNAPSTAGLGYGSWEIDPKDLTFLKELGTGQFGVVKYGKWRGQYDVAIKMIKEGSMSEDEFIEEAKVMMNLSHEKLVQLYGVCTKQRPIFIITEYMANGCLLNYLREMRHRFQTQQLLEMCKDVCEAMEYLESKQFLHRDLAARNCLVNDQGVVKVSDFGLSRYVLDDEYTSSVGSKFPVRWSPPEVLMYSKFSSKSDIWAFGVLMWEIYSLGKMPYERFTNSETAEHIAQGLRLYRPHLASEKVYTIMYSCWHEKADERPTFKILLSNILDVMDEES

As usually defined, the IC50 is the midpoint of a concentration-inhibition curve. In the case of `CCOC(C)c1ccc(-c2nn([C@H]3C[C@@]4(CCN(C(=O)C#CC5CC5)C4)C3)c(N)c2C(N)=O)cc1` (stereo partly shown) [Example 17], the IC50 in assay [1] was found to be 1.2 nM.
On the same count and under the same terms, the value for `CCC#CC(=O)N1CC[C@]2(C1)C[C@H](n1nc(-c3ccc(COC)cc3)c(C(N)=O)c1N)C2` [Example 12] was 0.9 nM; that for `C=CC(=O)N1CC2(CC(n3nc(-c4ccc(COC)cc4)c(C(N)=O)c3N)C2)C1` [Example 3] was 94 nM; that for `CC#CC(=O)N1CCC[C@]2(C1)C[C@@H](n1nc(-c3ccc(COC)cc3)c(C(N)=O)c1N)C2` [Example 8] was 160 nM.
On the same count and under the same terms, with `COCc1ccc(-c2nn([C@H]3C[C@@]4(CCN(C(=O)C#CC5CCC5)C4)C3)c(N)c2C(N)=O)cc1` [Example 14] the figure was 0.6 nM.
For `CC#CC(=O)N1CC[C@]2(C1)C[C@H](n1nc(-c3ccc(S(C)(=O)=O)cc3)c(C(N)=O)c1N)C2` [Example 27], the results for the IC50 in assay [1], in assay [2] and in assay [3] were 12 nM, more than 10000 nM and 93 nM, respectively.
Consider `CC#CC(=O)N1CCC[C@]2(C1)C[C@H](n1nc(-c3ccc(C(O)C4CC4)cc3)c(C(N)=O)c1N)C2` (stereo partly shown) [Example 22], for which half-maximal inhibition in assay [1] (IC50) was put at 59 nM.
Still for that read-out and setting: the value for `C=CC(=O)N1CC[C@]2(C1)C[C@H](n1nc(-c3ccc(CO)cc3)c(C(N)=O)c1N)C2` [Example 20] was 66 nM; that for `CC#CC(=O)N1CC[C@]2(C1)C[C@H](n1nc(-c3ccc(COCC)cc3)c(C(N)=O)c1N)C2` [Example 11] was 2.2 nM.
The same measure, in the same setting: the value for `CC#CC(=O)N1CC[C@]2(C1)C[C@H](n1nc(-c3ccc(C4(CO)CC4)cc3)c(C(N)=O)c1N)C2` [Example 26] was 2.4 nM; that for `C=CC(=O)N1CCC[C@]2(C1)C[C@@H](n1nc(-c3ccc(COC)cc3)c(C(N)=O)c1N)C2` [Example 6] was 460 nM.
For the compound `C=CC(=O)N1CC2(CC(n3nc(-c4ccc(C(C)OC)cc4)c(C(N)=O)c3N)C2)C1` (stereo not shown) [Example 2], 200 nM corresponded to half-maximal inhibition in assay [1] (IC50).
`C=CC(=O)N1CC[C@]2(C1)C[C@H](n1nc(-c3ccc(COC)cc3)c(C(N)=O)c1N)C2` [Example 4]: inhibition in assay [1] was half-maximal at 26 nM (IC50).
For the compound `CC#CC(=O)N1CCC[C@]2(C1)C[C@H](n1nc(-c3ccc(COC)cc3)c(C(N)=O)c1N)C2` [Example 9], the IC50 in assay [1] is 8.2 nM; in assay [2], more than 10000 nM; in assay [3], 6.3 nM.
Regarding `CC#CC(=O)N1CC[C@]2(C1)C[C@H](n1nc(-c3ccc(CO)cc3)c(C(N)=O)c1N)C2` [Example 21], inhibition in assay [1] was half-maximal at 2.5 nM (IC50).
With `CC#CC(=O)N1CC[C@]2(C1)C[C@H](n1nc(-c3ccc(CCO)cc3)c(C(N)=O)c1N)C2` [Example 25], the values for the IC50 in assay [1], in assay [2] and in assay [3] were 1.4 nM, more than 10000 nM and 7 nM, respectively.
In the same order, the values of `CC#CC(=O)N1CC[C@]2(C1)C[C@H](n1nc(-c3ccc(COC)cc3)c(C(N)=O)c1N)C2` [Example 5] are 2 nM, 6100 nM and 2.4 nM.
The corresponding values for `CC#CC(=O)N1CC[C@]2(C1)C[C@H](n1nc(-c3ccc(C(O)C(C)C)cc3)c(C(N)=O)c1N)C2` (stereo partly shown) [Example 19] are 4.5 nM, 3000 nM and 5.1 nM.
As for `CC#CC(=O)N1CC[C@]2(C1)C[C@H](n1nc(-c3ccc(C(C)OC)cc3)c(C(N)=O)c1N)C2` (stereo partly shown) [Example 10], 9.3 nM corresponded to half-maximal inhibition in assay [1] (IC50).
Regarding `C=CC(=O)N1CC[C@]2(C1)C[C@H](n1nc(-c3ccc(C(O)C(C)C)cc3)c(C(N)=O)c1N)C2` (stereo partly shown) [Example 18], in assay [1], inhibition was half-maximal at 150 nM (IC50).
In the case of `C=CC(=O)N1CC2(CC(n3nc(-c4ccc(C(C)OCC)cc4)c(C(N)=O)c3N)C2)C1` (stereo not shown) [Example 1], the IC50 in assay [1] worked out at 100 nM.
On to `CCC#CC(=O)N1CC[C@]2(C1)C[C@H](n1nc(-c3ccc(C(C)OCC)cc3)c(C(N)=O)c1N)C2` (stereo partly shown) [Example 16], for which, in assay [1], half-maximal inhibition (IC50) required 1.8 nM.
In assay [1], `C=CC(=O)N1CCC[C@]2(C1)C[C@@H](n1nc(-c3ccc(C(O)C4CC4)cc3)c(C(N)=O)c1N)C2` (stereo partly shown) [Example 23] gave an IC50 of 68 nM.
In assay [1], `COCc1ccc(-c2nn([C@H]3C[C@@]4(CCN(C(=O)C#CC5CC5)C4)C3)c(N)c2C(N)=O)cc1` [Example 13] displayed an IC50 of 0.7 nM.
The same measure, in the same setting: with `C=CC(=O)N1CCC[C@]2(C1)C[C@H](n1nc(-c3ccc(COC)cc3)c(C(N)=O)c1N)C2` [Example 7] the figure was 450 nM; with `CC#CC(=O)N1CC[C@]2(C1)C[C@H](n1nc(-c3ccc(C(C)OCC)cc3)c(C(N)=O)c1N)C2` (stereo partly shown) [Example 15], 3.6 nM.
For `C=CC(=O)N1CC2(CC(n3nc(-c4ccc(C5(CO)CC5)cc4)c(C(N)=O)c3N)C2)C1` [Example 24], the IC50 in assay [1] was 240 nM.
